These results are taken from ChEMBL document CHEMBL1150515, “Synthesis and structure-activity relationships of novel THF 1-methylcarbapenems II” (1997).

For the first assay, the target named is T1, Dipeptidase 1 (Sus scrofa) (UniProt P22412).
T1 sequence (whole entry): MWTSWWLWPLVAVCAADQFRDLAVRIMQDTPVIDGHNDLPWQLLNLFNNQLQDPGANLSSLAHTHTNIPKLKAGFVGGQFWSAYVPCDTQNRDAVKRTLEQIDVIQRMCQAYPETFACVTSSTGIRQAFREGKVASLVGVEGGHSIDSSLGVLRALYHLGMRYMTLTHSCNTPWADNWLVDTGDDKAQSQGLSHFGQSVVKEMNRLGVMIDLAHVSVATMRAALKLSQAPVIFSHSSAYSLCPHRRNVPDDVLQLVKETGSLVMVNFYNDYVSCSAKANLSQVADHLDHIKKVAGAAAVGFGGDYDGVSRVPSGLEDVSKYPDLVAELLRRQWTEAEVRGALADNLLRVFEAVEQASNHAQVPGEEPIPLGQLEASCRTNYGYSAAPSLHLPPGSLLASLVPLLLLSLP
In words: Relative hydrolysis to that of imipenem was determined by hog renal dehydropeptidase.
Details: not given
Regarding `CNC[C@H]1OCC[C@H]1SC1=C(C(=O)[O-])N2C(=O)[C@H]([C@@H](C)O)[C@H]2[C@H]1C.[Na+]`, the Relative hydrolysis was 10.
`C[C@@H](O)[C@H]1C(=O)N2C(C(=O)[O-])=C(S[C@@H]3CCO[C@@H]3CN)[C@H](C)[C@H]12.[Na+]` showed a Relative hydrolysis of 8.5.
Still for that read-out and setting: for `CCN1CCN(C(=O)NCC2CC(SC3=C(C(=O)[O-])N4C(=O)[C@H]([C@@H](C)O)[C@H]4[C@H]3C)CO2)C(=O)C1=O.[Na+]` (stereo not given in full) the value was 13.

For a further assay, the system named is Escherichia coli. The assay can be described thus: Antimicrobial activity against Escherichia coli (GC 1792). In kind it is functional.
Details: not given
For orientation: MIC means the lowest concentration that inhibits growth of the organism. As to `CNC[C@H]1OCC[C@H]1SC1=C(C(=O)[O-])N2C(=O)[C@H]([C@@H](C)O)[C@H]2[C@H]1C.[Na+]`, the minimal inhibitory concentration (MIC) was at most 0.06 µg/mL.
The molecule `C[C@@H](O)[C@H]1C(=O)N2C(C(=O)[O-])=C(S[C@@H]3CCO[C@@H]3CN)[C@H](C)[C@H]12.[Na+]` came in with an MIC of at most 0.06 µg/mL.
Still for that read-out and setting: for `CCN1CCN(C(=O)NCC2CC(SC3=C(C(=O)[O-])N4C(=O)[C@H]([C@@H](C)O)[C@H]4[C@H]3C)CO2)C(=O)C1=O.[Na+]` (stereo not given in full) the value was 4 µg/mL.

The next assay concerns Pseudomonas aeruginosa. The assay can be described thus: Antimicrobial activity against Pseudomonas aeruginosa (ATCC 27853). In kind it is functional.
Details: not given
`CNC[C@H]1OCC[C@H]1SC1=C(C(=O)[O-])N2C(=O)[C@H]([C@@H](C)O)[C@H]2[C@H]1C.[Na+]` registered an MIC of 8 µg/mL.
The same measure, in the same setting: for `C[C@@H](O)[C@H]1C(=O)N2C(C(=O)[O-])=C(S[C@@H]3CCO[C@@H]3CN)[C@H](C)[C@H]12.[Na+]` the value was 8 µg/mL; for `CCN1CCN(C(=O)NCC2CC(SC3=C(C(=O)[O-])N4C(=O)[C@H]([C@@H](C)O)[C@H]4[C@H]3C)CO2)C(=O)C1=O.[Na+]` (stereo not given in full), above 128 µg/mL.

Tested on in the next assay: not listed separately
The assay can be described thus: Antimicrobial activity against Enterococcus faecium (GC 1182). In kind it is functional.
Details: not given
For the molecule `CNC[C@H]1OCC[C@H]1SC1=C(C(=O)[O-])N2C(=O)[C@H]([C@@H](C)O)[C@H]2[C@H]1C.[Na+]`, the MIC was above 64 µg/mL.
As to `C[C@@H](O)[C@H]1C(=O)N2C(C(=O)[O-])=C(S[C@@H]3CCO[C@@H]3CN)[C@H](C)[C@H]12.[Na+]`, the MIC amounted to 64 µg/mL.
Still for that read-out and setting: for `CCN1CCN(C(=O)NCC2CC(SC3=C(C(=O)[O-])N4C(=O)[C@H]([C@@H](C)O)[C@H]4[C@H]3C)CO2)C(=O)C1=O.[Na+]` (stereo not given in full) the value was above 128 µg/mL.

For the next assay, the system named is Pseudomonas aeruginosa. The assay can be described thus: Antimicrobial activity against Pseudomonas aeruginosa (GC 1544 OprD).
Details: not given
In kind it is functional.
For `CNC[C@H]1OCC[C@H]1SC1=C(C(=O)[O-])N2C(=O)[C@H]([C@@H](C)O)[C@H]2[C@H]1C.[Na+]`, the minimal inhibitory concentration (MIC) came to 32 µg/mL.
Still for that read-out and setting: for `C[C@@H](O)[C@H]1C(=O)N2C(C(=O)[O-])=C(S[C@@H]3CCO[C@@H]3CN)[C@H](C)[C@H]12.[Na+]` the value was 16 µg/mL; for `CCN1CCN(C(=O)NCC2CC(SC3=C(C(=O)[O-])N4C(=O)[C@H]([C@@H](C)O)[C@H]4[C@H]3C)CO2)C(=O)C1=O.[Na+]` (stereo not given in full), 128 µg/mL.

Tested on in a further assay: not listed separately
The assay can be described thus: Antimicrobial activity against Citrobacter freundii (GC 2211). In kind it is functional.
Details: not given
`CNC[C@H]1OCC[C@H]1SC1=C(C(=O)[O-])N2C(=O)[C@H]([C@@H](C)O)[C@H]2[C@H]1C.[Na+]` registered an MIC of 0.12 µg/mL.
Still for that read-out and setting: for `C[C@@H](O)[C@H]1C(=O)N2C(C(=O)[O-])=C(S[C@@H]3CCO[C@@H]3CN)[C@H](C)[C@H]12.[Na+]` the value was at most 0.06 µg/mL; for `CCN1CCN(C(=O)NCC2CC(SC3=C(C(=O)[O-])N4C(=O)[C@H]([C@@H](C)O)[C@H]4[C@H]3C)CO2)C(=O)C1=O.[Na+]` (stereo not given in full), 32 µg/mL.

The subject of another assay is Escherichia coli. In words: Antimicrobial activity against Escherichia coli (ATCC 25922). It counts as functional.
Details: not given
As to `CNC[C@H]1OCC[C@H]1SC1=C(C(=O)[O-])N2C(=O)[C@H]([C@@H](C)O)[C@H]2[C@H]1C.[Na+]`, the MIC was at most 0.06 µg/mL.
`C[C@@H](O)[C@H]1C(=O)N2C(C(=O)[O-])=C(S[C@@H]3CCO[C@@H]3CN)[C@H](C)[C@H]12.[Na+]` returned an MIC of at most 0.06 µg/mL.
Still for that read-out and setting: for `CCN1CCN(C(=O)NCC2CC(SC3=C(C(=O)[O-])N4C(=O)[C@H]([C@@H](C)O)[C@H]4[C@H]3C)CO2)C(=O)C1=O.[Na+]` (stereo not given in full) the value was 2 µg/mL.

In a further assay the test system is Acinetobacter calcoaceticus. The assay can be described thus: Antimicrobial activity against Acinetobacter calcoaceticus (GC 756). In kind it is functional.
Details: not given
As to `CNC[C@H]1OCC[C@H]1SC1=C(C(=O)[O-])N2C(=O)[C@H]([C@@H](C)O)[C@H]2[C@H]1C.[Na+]`, the MIC was 4 µg/mL.
In the case of `C[C@@H](O)[C@H]1C(=O)N2C(C(=O)[O-])=C(S[C@@H]3CCO[C@@H]3CN)[C@H](C)[C@H]12.[Na+]`, the minimal inhibitory concentration (MIC) is 2 µg/mL.
The same measure, in the same setting: for `CCN1CCN(C(=O)NCC2CC(SC3=C(C(=O)[O-])N4C(=O)[C@H]([C@@H](C)O)[C@H]4[C@H]3C)CO2)C(=O)C1=O.[Na+]` (stereo not given in full) the value was 128 µg/mL.

Tested on in another assay: not listed separately
In words: Antimicrobial activity against Enterobacter cloacae (GC 2209). In kind it is functional.
Details: not given
In turn, `CNC[C@H]1OCC[C@H]1SC1=C(C(=O)[O-])N2C(=O)[C@H]([C@@H](C)O)[C@H]2[C@H]1C.[Na+]` returned a minimal inhibitory concentration (MIC) of at most 0.06 µg/mL.
On the same count and under the same terms, for `C[C@@H](O)[C@H]1C(=O)N2C(C(=O)[O-])=C(S[C@@H]3CCO[C@@H]3CN)[C@H](C)[C@H]12.[Na+]` the value was at most 0.06 µg/mL; for `CCN1CCN(C(=O)NCC2CC(SC3=C(C(=O)[O-])N4C(=O)[C@H]([C@@H](C)O)[C@H]4[C@H]3C)CO2)C(=O)C1=O.[Na+]` (stereo not given in full), 8 µg/mL.

Another assay relates to Escherichia coli. The assay can be described thus: Antimicrobial activity against Escherichia coli (GC 2205). It counts as functional.
Details: not given
Molecule `CNC[C@H]1OCC[C@H]1SC1=C(C(=O)[O-])N2C(=O)[C@H]([C@@H](C)O)[C@H]2[C@H]1C.[Na+]` came in with an MIC of at most 0.06 µg/mL.
Still for that read-out and setting: for `C[C@@H](O)[C@H]1C(=O)N2C(C(=O)[O-])=C(S[C@@H]3CCO[C@@H]3CN)[C@H](C)[C@H]12.[Na+]` the value was at most 0.06 µg/mL; for `CCN1CCN(C(=O)NCC2CC(SC3=C(C(=O)[O-])N4C(=O)[C@H]([C@@H](C)O)[C@H]4[C@H]3C)CO2)C(=O)C1=O.[Na+]` (stereo not given in full), 0.25 µg/mL.

Tested on in the next assay: not listed separately
In words: Antimicrobial activity against Xanthomonas maltophilia (GC 562). The following applies: Stenotrophomonas maltophilia. In kind it is functional.
`CNC[C@H]1OCC[C@H]1SC1=C(C(=O)[O-])N2C(=O)[C@H]([C@@H](C)O)[C@H]2[C@H]1C.[Na+]`: the minimum inhibitory concentration (MIC) is above 128 µg/mL.
The same measure, in the same setting: for `C[C@@H](O)[C@H]1C(=O)N2C(C(=O)[O-])=C(S[C@@H]3CCO[C@@H]3CN)[C@H](C)[C@H]12.[Na+]` the value was above 128 µg/mL; for `CCN1CCN(C(=O)NCC2CC(SC3=C(C(=O)[O-])N4C(=O)[C@H]([C@@H](C)O)[C@H]4[C@H]3C)CO2)C(=O)C1=O.[Na+]` (stereo not given in full), above 128 µg/mL.

A further assay concerns Staphylococcus aureus. In words: Antimicrobial activity against methicillin - resistant Staphylococcus aureus (GC 2220).
Details: not given
It counts as functional.
`CNC[C@H]1OCC[C@H]1SC1=C(C(=O)[O-])N2C(=O)[C@H]([C@@H](C)O)[C@H]2[C@H]1C.[Na+]` returned a minimal inhibitory concentration (MIC) of 1 µg/mL.
Still for that read-out and setting: for `C[C@@H](O)[C@H]1C(=O)N2C(C(=O)[O-])=C(S[C@@H]3CCO[C@@H]3CN)[C@H](C)[C@H]12.[Na+]` the value was 1 µg/mL.
In turn, `CCN1CCN(C(=O)NCC2CC(SC3=C(C(=O)[O-])N4C(=O)[C@H]([C@@H](C)O)[C@H]4[C@H]3C)CO2)C(=O)C1=O.[Na+]` (stereo not given in full) displayed an MIC of 32 µg/mL.

Tested on in a further assay: not listed separately
In words: Antimicrobial activity against Morganella morganii (GC 2213). In kind it is functional.
Details: not given
In the case of `CNC[C@H]1OCC[C@H]1SC1=C(C(=O)[O-])N2C(=O)[C@H]([C@@H](C)O)[C@H]2[C@H]1C.[Na+]`, the lowest concentration to inhibit growth (MIC) was 0.5 µg/mL.
On the same count and under the same terms, for `C[C@@H](O)[C@H]1C(=O)N2C(C(=O)[O-])=C(S[C@@H]3CCO[C@@H]3CN)[C@H](C)[C@H]12.[Na+]` the value was 0.5 µg/mL.
Still for that read-out and setting: for `CCN1CCN(C(=O)NCC2CC(SC3=C(C(=O)[O-])N4C(=O)[C@H]([C@@H](C)O)[C@H]4[C@H]3C)CO2)C(=O)C1=O.[Na+]` (stereo not given in full) the value was 16 µg/mL.

Tested on in the next assay: not listed separately
The assay can be described thus: Antimicrobial activity against Enterococcus faecalis (GC 842). It counts as functional.
Details: not given
In turn, `CNC[C@H]1OCC[C@H]1SC1=C(C(=O)[O-])N2C(=O)[C@H]([C@@H](C)O)[C@H]2[C@H]1C.[Na+]` gave an MIC of 0.5 µg/mL.
Still for that read-out and setting: for `C[C@@H](O)[C@H]1C(=O)N2C(C(=O)[O-])=C(S[C@@H]3CCO[C@@H]3CN)[C@H](C)[C@H]12.[Na+]` the value was 0.5 µg/mL; for `CCN1CCN(C(=O)NCC2CC(SC3=C(C(=O)[O-])N4C(=O)[C@H]([C@@H](C)O)[C@H]4[C@H]3C)CO2)C(=O)C1=O.[Na+]` (stereo not given in full), 16 µg/mL.

In another assay the test system is Staphylococcus aureus. The assay can be described thus: Antimicrobial activity against Staphylococcus aureus (ATCC 29213). It counts as functional.
Details: not given
Consider `CNC[C@H]1OCC[C@H]1SC1=C(C(=O)[O-])N2C(=O)[C@H]([C@@H](C)O)[C@H]2[C@H]1C.[Na+]`, for which the minimum inhibitory concentration (MIC) was at most 0.06 µg/mL.
Same read-out and setting: for `C[C@@H](O)[C@H]1C(=O)N2C(C(=O)[O-])=C(S[C@@H]3CCO[C@@H]3CN)[C@H](C)[C@H]12.[Na+]` the value was at most 0.06 µg/mL; for `CCN1CCN(C(=O)NCC2CC(SC3=C(C(=O)[O-])N4C(=O)[C@H]([C@@H](C)O)[C@H]4[C@H]3C)CO2)C(=O)C1=O.[Na+]` (stereo not given in full), 0.5 µg/mL.
